Experimental data taken from patent publication EP3587389A1 (INSTYTUT FARMACEUTYCZNY, priority 2018, dated 2020).

Key:
[1] = DPPH free radical scavenging assay; conditions: for IC50: 30 min at room temperature, absorbance at 517 nm; for scavenging abilities (in words): DPPH assay
Description: J Nat Prod. 2010 Feb 26; 73(2): 252-4. doi: 10.1021/np900519d.) with a modification. Briefly, different concentrations of the compounds (100 µl) were mixed with 900 µl of the 0.04 mg/ml methanolic solution of DPPH. The mixture was kept at room temperature for 30 min, and then the absorbance at 517 nm was measured. The half maximal inhibitory concentration (IC50) was used as an indicating measure of the scavenging activity.

[2] = Oxidation inhibition of the o/w emulsion (lipid peroxidation, TBARS); conditions: for o/w emulsion (Inhibition of the oxidation (%)) / o/w emulsion (Inhibition of the oxidation), footnoted symbol: determined at 100 µM, flaxseed oil emulsion, oxidation induced with Mohr's salt, TBARS; for protection against the induced oxidation (in words): o/w emulsion model
Description: The emulsion was prepared according to the method described in Zarnowski R. et al., The oil of Adenanthera pavonina L. seeds and its emulsions. Z Naturforsch C. 2004;59(5-6):321-326; Jaromin A. et al., Emulsions of oil from Adenanthera pavonina L. seeds and their protective effect Cell Mol Biol Lett 2006; 11(3): 438-448). Briefly, 15 mg of sorbitan sesquioleate was added to 50 mg of flaxseed oil and vigorously mixed for 20 min. Then, 2 ml of an aqueous phase consisting of 10 mM Tris-HCl buffer, pH 7.4, was added. The sample was further vortexed for 15 min. and sonicated (Sonics & Materials Inc., Newton, CT, USA) for 10 min. in a coldwater bath. Then, 20 µl of the 1:1 (v/v) buffer diluted emulsion, methanolic solution of each compound (final concentration 100 µM) and 10 mM Tris-HCl buffer, pH 7.4, were mixed and incubated at room temperature for 10 min. To induce oxidation, 100 µl of freshly prepared aqueous solution of ammonium iron(II) sulfate hexahydrate (Mohr's salt) (5 mM) was added (total volume of the sample was 1 ml) and the samples were incubated at room temperature for 15 min. Flaxseed oil emulsion without any compound addition was included as control. After the oxidation step, determination of the thiobarbituric acid reacting substances (TBARS) was performed (Buege J.A., Aust S.D., Microsomal lipid peroxidation. Methods Enzymol. 1978;52:302-310). 2 ml of the thiobarbituric acid (TBA) reagent (15% trichloroacetic acid, 0.25 N HCl and 0.5% TBA) was added to each sample, mixed and heated at 100°C for 30 min. After centrifugation at 13 000 rpm for 10 min, the absorbance of the supernatants was measured at 535 nm. The obtained values were used to calculate the % of the oxidation inhibition according to the following equation: Inhibition of the oxidation (%) = [1−(absorbance of the sample/absorbance of control)] × 100 [formula]

| Compound | IC50 [1] | o/w emulsion (Inhibition of the oxidation (%)) [2] | scavenging abilities (in words) [1] | o/w emulsion (Inhibition of the oxidation), footnoted symbol [2] | protection against the induced oxidation (in words) [2] |
| --- | --- | --- | --- | --- | --- |
| COC(=O)/C=C/c1ccc(O)cc1 [Compound 8, 3-(4'-Hydroxyphenyl)-(E)-propenoic acid methyl ester] | > 5000 µM | 22.7 ± 6.4% | no scavenging abilities |  |  |
| COC(=O)/C=C/c1ccccc1O [Compound 9, 3-(2'-Hydroxyphenyl)-(E)-propenoic acid methyl ester] | > 5000 µM | 2.6 ± 1.5% | no scavenging abilities |  |  |
| COC(=O)/C=C/c1ccc(O)c(O)c1O [Compound 12, 3-(2',3',4'-trihydroxyphenyl)-(E)-propenoic acid methyl ester] | 18.6 µM | 55.5 ± 2% |  |  | highest protection against the induced oxidation |
| COC(=O)/C=C/c1ccc(O)c(OC)c1 [Compound 14, 3-(4'-hydroxy-3-metoxyphenyl)-(E)-propenoic acid methyl ester] | 58.9 µM | 14.8 ± 2% |  |  |  |
| CC(=O)/C=C/c1cccc(O)c1 [Compound 15, 4-(3'-hydroxyphenyl)-3(E)-buten-2-one] |  |  | no scavenging abilities | n.a.^b (no protection detected) |  |
| CC(=O)/C=C/c1ccc(O)c(O)c1O [Compound 18, 4-(2',3',4'-trihydroxyphenyl)-3(E)-buten-2-one] | 16.8 µM | 28.6 ± 4% |  |  | highest protection against the induced oxidation |

More lines, main results first:

| IC50 [1] | Compound | o/w emulsion (Inhibition of the oxidation (%)) [2] | scavenging abilities (in words) [1] | o/w emulsion (Inhibition of the oxidation), footnoted symbol [2] | protection against the induced oxidation (in words) [2] |
| --- | --- | --- | --- | --- | --- |
| 32.2 µM | O=C(O)/C=C/c1ccc(O)c(O)c1 [CA, Caffeic acid] | 26.1 ± 2.9% |  |  |  |
| > 5000 µM | CC(=O)/C=C/c1ccccc1O [Compound 6, 4-(2'-hydroxyphenyl)-3(E)-buten-2-one] |  | no scavenging abilities | n.a.^b (no protection detected) |  |
| > 5000 µM | COC(=O)/C=C/c1cccc(O)c1 [Compound 10, 3-(3'-Hydroxyphenyl)-(E)-propenoic acid methyl ester] | 18.4 ± 2.2% | no scavenging abilities |  |  |
| 1020 µM | COC(=O)/C=C/c1ccc(O)cc1O [Compound 11, 3-(2',4'-dihydroxyphenyl)-(E)-propenoic acid methyl ester] | 33.7 ± 6.5% |  |  |  |
| 53.3 µM | COC(=O)/C=C/c1cc(O)c(O)cc1O [Compound 13, 3-(2',4',5'-trihydroxyphenyl)-(E)-propenoic acid methyl ester] | 38.6 ± 2.3% |  |  | highest protection against the induced oxidation |
| > 5000 µM | CC(=O)/C=C/c1ccc(O)cc1 [Compound 16, 4-(4'-hydroxyphenyl)-3(E)-buten-2-one] | 6.8 ± 4.4% | no scavenging abilities |  |  |
| 688 µM | CC(=O)/C=C/c1ccc(O)cc1O [Compound 17, 4-(2',4'-dihydroxyphenyl)-3(E)-buten-2-one] | 4.6 ± 1.3% |  |  |  |
| 61.8 µM | COc1cc(/C=C/C(C)=O)ccc1O [Compound 20, 4-(3'-methoxy-4'-hydroxyphenyl)-3(E)-buten-2-one] | 7.9 ± 2.1% |  |  |  |
